Laboratory results from PMC8452302 (CPT: Pharmacometrics & Systems Pharmacology, 2021).
Where two headings read alike, the source gives them in different places.

Assays:
OATP1B1 [1] = molecular target: T1, OATP1B1 (Homo sapiens, UniProt Q9Y6L6); test: Static DDI risk assessment, OATP1B1 R-value; conditions: 1 + Iin,max,u/IC50; metabolite/combination additive; Imax,u for IV
T1 sequence (Q9Y6L6 1-691): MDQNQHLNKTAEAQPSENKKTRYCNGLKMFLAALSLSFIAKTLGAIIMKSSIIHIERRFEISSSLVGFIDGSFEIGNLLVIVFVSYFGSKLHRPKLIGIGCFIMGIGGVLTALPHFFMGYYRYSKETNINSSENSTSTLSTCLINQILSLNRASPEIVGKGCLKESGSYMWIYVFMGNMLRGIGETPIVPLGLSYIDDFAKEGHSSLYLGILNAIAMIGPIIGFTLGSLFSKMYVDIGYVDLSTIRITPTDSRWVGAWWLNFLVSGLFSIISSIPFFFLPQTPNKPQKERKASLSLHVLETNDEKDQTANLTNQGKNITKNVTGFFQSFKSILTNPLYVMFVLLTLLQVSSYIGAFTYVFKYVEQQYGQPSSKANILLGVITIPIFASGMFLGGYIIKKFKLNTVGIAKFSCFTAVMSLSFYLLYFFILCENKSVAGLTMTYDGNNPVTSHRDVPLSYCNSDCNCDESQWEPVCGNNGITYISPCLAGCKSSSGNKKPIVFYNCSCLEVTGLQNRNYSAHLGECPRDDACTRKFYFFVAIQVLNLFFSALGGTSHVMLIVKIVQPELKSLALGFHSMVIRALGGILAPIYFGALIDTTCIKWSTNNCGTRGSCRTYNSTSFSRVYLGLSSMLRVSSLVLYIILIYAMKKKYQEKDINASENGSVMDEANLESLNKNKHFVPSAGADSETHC

[2] = cited from earlier work; for Rosuvastatin AUC ratio: observed, rosuvastatin with vs without inhibitor; for Rosuvastatin AUC ratio / Cmax ratio Observed: ref Table S1; for Cmax ratio Observed: rosuvastatin with/without inhibitor, regimens as in table row
BCRP = molecular target: T2, BCRP (Homo sapiens, UniProt Q9UNQ0); test: In vitro BCRP inhibition, HEK293-BCRP membrane vesicles, rosuvastatin probe; type: biochemical
T2 sequence (Q9UNQ0 1-655): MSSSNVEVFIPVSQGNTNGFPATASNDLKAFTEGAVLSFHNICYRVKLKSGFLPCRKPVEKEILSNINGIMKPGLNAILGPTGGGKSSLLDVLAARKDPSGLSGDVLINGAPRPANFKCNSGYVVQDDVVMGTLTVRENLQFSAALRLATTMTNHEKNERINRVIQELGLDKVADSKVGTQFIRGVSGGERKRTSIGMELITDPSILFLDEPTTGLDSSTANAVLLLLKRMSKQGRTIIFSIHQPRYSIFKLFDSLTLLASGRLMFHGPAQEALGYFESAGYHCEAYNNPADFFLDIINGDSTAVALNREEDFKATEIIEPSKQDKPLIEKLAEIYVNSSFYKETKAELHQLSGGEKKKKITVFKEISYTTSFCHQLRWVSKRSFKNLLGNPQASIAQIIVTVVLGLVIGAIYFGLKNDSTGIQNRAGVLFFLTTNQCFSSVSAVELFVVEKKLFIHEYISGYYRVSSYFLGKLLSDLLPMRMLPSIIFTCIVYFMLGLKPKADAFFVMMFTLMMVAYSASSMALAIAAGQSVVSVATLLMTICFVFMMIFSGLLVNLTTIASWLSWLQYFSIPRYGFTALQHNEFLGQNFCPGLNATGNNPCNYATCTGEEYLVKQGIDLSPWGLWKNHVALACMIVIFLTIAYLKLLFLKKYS

OATP1B3 [3] = molecular target: T3, OATP1B3 (Homo sapiens, UniProt Q9NPD5); test: Static DDI risk assessment, OATP1B3 R-value; conditions: 1 + Iin,max,u/IC50; metabolite/combination additive; Imax,u for IV
T3 sequence (Q9NPD5 1-702): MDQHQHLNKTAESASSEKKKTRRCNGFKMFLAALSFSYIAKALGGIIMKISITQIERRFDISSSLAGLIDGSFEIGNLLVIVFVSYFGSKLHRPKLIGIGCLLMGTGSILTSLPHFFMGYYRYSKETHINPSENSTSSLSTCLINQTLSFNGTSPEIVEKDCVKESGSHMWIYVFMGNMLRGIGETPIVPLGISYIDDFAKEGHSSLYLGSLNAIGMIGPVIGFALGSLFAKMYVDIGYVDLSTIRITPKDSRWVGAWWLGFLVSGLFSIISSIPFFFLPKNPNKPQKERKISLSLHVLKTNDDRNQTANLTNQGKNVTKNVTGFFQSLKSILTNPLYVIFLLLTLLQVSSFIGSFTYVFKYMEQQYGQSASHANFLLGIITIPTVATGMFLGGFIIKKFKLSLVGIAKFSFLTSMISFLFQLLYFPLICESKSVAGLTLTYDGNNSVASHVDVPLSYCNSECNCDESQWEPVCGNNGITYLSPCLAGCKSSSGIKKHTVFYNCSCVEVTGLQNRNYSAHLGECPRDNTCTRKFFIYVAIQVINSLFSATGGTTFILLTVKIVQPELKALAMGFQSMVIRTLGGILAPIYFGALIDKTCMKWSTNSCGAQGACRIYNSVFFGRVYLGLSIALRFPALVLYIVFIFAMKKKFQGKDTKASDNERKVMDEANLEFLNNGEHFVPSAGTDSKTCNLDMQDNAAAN

OATP1B3 [4] = molecular target: T3, OATP1B3; test: In vitro OATP1B3 inhibition, transfected HEK293 cells, rosuvastatin probe; type: cell-based
OATP1B1 [5] = molecular target: T1, OATP1B1; test: In vitro OATP1B1 inhibition, transfected HEK293 cells, rosuvastatin probe; type: cell-based
[6] = read-out: BCRP IC50, membrane vesicles, rosuvastatin 0.2 µM probe

| Compound | 1B1 R-Value (OATP1B1 [1]) | Rosuvastatin AUC ratio [2] | Cmax ratio Observed [2] | IC50 (BCRP) | 1B3 R-Value (OATP1B3 [3]) | IC50 (OATP1B3 [4]) | IC50 (OATP1B1 [5]) | IC50 at 1 min (OATP1B3 [4]; human, HEK293 cells transfected with OATP1B3, pH 7.4, probe rosuvastatin 0.3 µM) | IC50 (BCRP; [6]) | Rosuvastatin AUC ratio ([2]; listed as darolutamide) | reduction of renal clearance of rosuvastatin ([2]; probenecid 1000 mg) |
| --- | --- | --- | --- | --- | --- | --- | --- | --- | --- | --- | --- |
| COC[C@H]1C[C@@H](c2ncc(-c3ccc4c(c3)COc3cc5c(ccc6nc([C@@H]7CC[C@H](C)N7C(=O)[C@@H](NC(=O)OC)C(C)C)[nH]c65)cc3-4)[nH]2)N(C(=O)[C@H](NC(=O)OC)c2ccccc2)C1 [Velpatasvir] | 1.00 | 2.59 | 2.50 | 0.09 µM | 1.02 | – | – | – | – | – | – |
| CC1=NN(c2ccc(C)c(C)c2)C(=O)/C1=N\Nc1cccc(-c2cccc(C(=O)O)c2)c1O [Eltrombopag] | 1.01 | 1.55 | – | 0.95 µM | 1.10 | 3 µM | 27.3 µM | – | – | – | – |
| Cc1ccc(C)c(OCCCC(C)(C)C(=O)O)c1 [Gemfibrozil] | 2.60 | 1.88 | 2.21 | 295 µM | 1.15 | 10 µM | – | – | – | – | – |
| COc1ccnc(C[S+]([O-])c2nc3ccc(OC(F)F)cc3[nH]2)c1OC (stereo not drawn) [Pantoprazole] | 1.01 | – | – | 6.1 µM | – | – | > 500 µM | > 500 µM | – | – | – |
| COc1cc(Nc2ncc(F)c(Nc3ccc4c(n3)N(COP(=O)(O)O)C(=O)C(C)(C)O4)n2)cc(OC)c1OC [Fostamatinib] | – | 1.95 | 1.90 | 2 µM | – | 7.4 µM | 0.89 µM | – | – | – | – |
| CC(=O)c1cc(C(=O)N[C@@H](C)Cn2ccc(-c3ccc(C#N)c(Cl)c3)n2)[nH]n1 [Keto‐darolutamide] | – | – | – | – | – | – | – | – | 0.56 µM | – | – |
| CNC(=O)c1ccc(-c2cnc3ncc(Cc4ccc5ncccc5c4)n3n2)cc1F [Capmatinib] | 1.35 | 2.03 | 3.05 | 0.69 µM | 1.08 | 14.5 µM | 3.3 µM | – | – | – | – |
| CO[C@H]1/C=C/O[C@@]2(C)Oc3c(C)c(O)c4c(O)c(c(/C=N/N5CCN(C)CC5)c(O)c4c3C2=O)NC(=O)/C(C)=C\C=C\[C@H](C)[C@H](O)[C@@H](C)[C@@H](O)[C@@H](C)[C@H](OC(C)=O)[C@@H]1C [Rifampicin] | 10.20 | – | – | – | 4.65 | 0.73 µM | 0.29 µM | – | – | – | – |
| CC(O)C(C)n1ncn(-c2ccc(N3CCN(c4ccc(OCC5COC(Cn6cncn6)(c6ccc(Cl)cc6Cl)O5)cc4)CC3)cc2)c1=O (stereo not drawn) [Hydroxy‐itraconazole] | – | – | – | – | – | – | 1.4 µM | – | – | – | – |
| COc1cc(Nc2ncc(F)c(Nc3ccc4c(n3)NC(=O)C(C)(C)O4)n2)cc(OC)c1OC [R406] | – | – | – | – | – | – | – | – | 0.065 µM | – | – |
| CC[C@H]1OC(=O)[C@H](C)[C@@H](O[C@H]2C[C@@](C)(OC)[C@@H](O)[C@H](C)O2)[C@H](C)[C@@H](O[C@@H]2O[C@H](C)C[C@H](N(C)C)[C@H]2O)[C@](C)(OC)C[C@@H](C)C(=O)[C@H](C)[C@@H](O)[C@]1(C)O [Clarithromcyin] | 1.99 | 1.58 | – | – | 1.35 | – | – | – | 411 µM | – | – |
| COC(=O)N[C@H](C(=O)N1CCC[C@H]1c1nc(-c2ccc(-c3ccc(-c4c[nH]c([C@@H]5CCCN5C(=O)[C@@H](NC(=O)OC)C(C)C)n4)cc3)cc2)c[nH]1)C(C)C [Daclatasvir] | 1.18 | 1.47 | – | 1.1 µM | 1.08 | – | – | – | – | – | – |
| CC[C@H](Nc1ncnc2[nH]cnc12)c1nc2cccc(F)c2c(=O)n1-c1ccccc1 [Idelalisib] | 1.19 | – | – | 54.4 µM | – | 7 µM | 3.13 µM | – | – | – | – |
| CC(C)(C)c1ccc(S(=O)(=O)Nc2ccc(Cl)cc2C(=O)c2cc[n+]([O-])cc2)cc1 [Vercirnon] | 2.02 | 0.99 | – | 3.3 µM | – | – | 2.1 µM | – | – | – | – |
| CC(O)c1cc(C(=O)N[C@@H](C)Cn2ccc(-c3ccc(C#N)c(Cl)c3)n2)[nH]n1 (stereo partly drawn) [Darolutamide] | 1.09 | 5.50 | 5.50 | 0.09 µM | 1.02 | 20.2 µM | – | – | – | > 5 | – |
| CC[C@H]1[C@@H](O)[C@@H]2[C@H](CC[C@]3(C)[C@@H]([C@H](C)CCC(=O)O)CC[C@@H]23)[C@@]2(C)CC[C@@H](O)C[C@@H]12 [Obeticholic acid] | 1.02 | 1.25 | – | 4.1 µM | 1.02 | 2.15 µM | 1.96 µM | – | – | – | – |
| CCCN(CCC)S(=O)(=O)c1ccc(C(=O)O)cc1 [Probenecid] | 1.99 | – | – | 216 µM | 1.11 | 339 µM | – | – | – | – | ~80% |
| C[C@](O)(COc1ccc(C#N)cc1)C(=O)Nc1ccc(C#N)c(C(F)(F)F)c1 [Enobosarm] | 1.00 | 1.18 | – | 1.1 µM | – | – | – | – | – | – | – |
| CCC(C)n1ncn(-c2ccc(N3CCN(c4ccc(OCC5COC(Cn6cncn6)(c6ccc(Cl)cc6Cl)O5)cc4)CC3)cc2)c1=O (stereo not drawn) [Itraconazole] | 1.01 | 1.26 | 1.38 | 3.2 µM | 1.00 | > 20 µM | 12.9 µM | – | – | – | – |
| CCCc1nc2c(C)cc(-c3nc4ccccc4n3C)cc2n1Cc1ccc(-c2ccccc2C(=O)O)cc1 [Telmisartan] | 1.01 | 1.20 | – | 0.61 µM | 1.03 | – | 3.06 µM | – | – | – | – |
| O=C(O)C[C@H]1CC[C@H](c2ccc(-c3ccc(Nc4ccc(C(F)(F)F)nc4)cn3)cc2)CC1 [Pradigastat] | 1.03 | 0.96 | – | 0.71 µM | 1.01 | – | 1.48 µM | – | – | – | – |
| CC(C)c1noc(N2CCC(COc3ccc(-c4ccc(S(C)(=O)=O)cc4)nc3)CC2)n1 [GSK1292263] | 1.03 | 1.39 | – | 3 µM | – | – | > 30 µM | – | – | – | – |
| O=c1ccc2ccc(OCCCCN3CCN(c4cccc5sccc45)CC3)cc2[nH]1 [Brexpiprazole] | 1.00 | 1.12 | – | 100 µM | – | – | 13.2 µM | – | – | – | – |
